Data published in paper PMC10959927, “Platinum iodido drugs show potential anti-tumor activity, affecting cancer cell metabolism and inducing ROS and senescence in gastrointestinal cancer cells” (Communications Biology, 2024).
“And” between values parts separate entries of the source, which are not always exact repeats. Identical values can stand only once. Like-named read-outs stand apart in the source and are kept apart here.

Columns and labels:
MKN45 cells [1] = experiment: Cell viability, crystal violet staining; settings: for Cell Viability without NAC: MKN45 cells, Fig. S6A; for IC50: read-out: IC50 concentration (± SD) at 48 h, 48 h
Method: (§1) Cell viability was assessed using a crystal violet-based staining method. […] The cells (2 × 10^5) were seeded in 24-multiwell dishes in 0.5 mL of complete medium and incubated overnight. […] After 48 h, cells were fixed with 1% glutaraldehyde (20–30 min), washed with distilled water, and stained with 0.1% crystal violet. […] IC50 were calculated by using GraphPad Prism (version 8.0). Nonlinear regression was used to fit the data to the log (inhibitor) versus response (variable slope).

AGS cells [2] = experiment: Cell viability, crystal violet staining; settings: for Cell Viability without NAC: AGS cells, Fig. S6A; for IC50: read-out: IC50 concentration (± SD) at 48 h, 48 h
Method: as §1

PANC1 cells [3] = experiment: Cell viability, crystal violet staining; settings: for Cell Viability without NAC: PANC1 cells, Fig. S6A; for IC50: read-out: IC50 concentration (± SD) at 48 h, 48 h
Method: as §1

MKN45 cells [4] = experiment: RT-qPCR gene expression (CDKN1A, IL6, MMP1, MAP2K3, SOD1, SOD2, CAT, MKI67, TNFRSF10D); assay type: cell-based, human
Method: (§2) Total cellular RNA was extracted using Tri-Reagent (Life Technologies), following the manufacturer’s instructions. One μg of total RNA was primed with random primers and cDNA synthesized with an M-MLV reverse transcriptase following the manufacturer’s instructions (Promega). Target genes were amplified using a SYBR Green polymerase chain reaction assay, working with the specific primer sets listed in Table 4.
(§3) Thermal cycling of the qPCR reaction was initiated with a denaturation step at 95 °C for 10 min. The process consisted of 40 cycles (denaturation at 95 °C for 15 sec, annealing at 60 °C for 30 sec, and elongation at 75 °C for 30 sec). PCR amplifications were carried out in a StepOne Real‐time PCR System (Applied Biosystems, 4376357). Relative mRNA levels were calculated by the delta-Ct method (2-ΔΔCt), where each 1-Ct difference equals a two-fold change in transcript abundance, using GAPDH as an endogenous gene reference. ΔΔCT represents the difference between the mean ΔCT value of the cells tested and the mean ΔCT value of the calibrator, both calculated for the same PCR run.

AGS cells [5] = experiment: as above; assay type: cell-based, human
Method: as §2, §3

PANC1 cells [6] = experiment: as above; assay type: cell-based, human
Method: as §2, §3

[7] = MKN45, Fig. 3C, replicate values
[8] = PANC1, Fig. 3C, replicate values

CC(C)[NH][Pt@SP1]([I])([I])[NH]C(C)C [I6, cis-[PtI2(isopropylamine)2]]
Cell Viability without NAC (MKN45 cells [1]; dose 18.7 µM): 103.308 and 97.338 and 102.412
Cell Viability without NAC (MKN45 cells [1]; dose 37.4 µM): 85.458 and 67.9963 and 88.4728
Cell Viability without NAC (MKN45 cells [1]; dose 56.1 µM): 58.2655 and 42.2365 and 52.8031
Cell Viability without NAC (MKN45 cells [1]; dose 74.8 µM): 41.9977 and 31.3714 and 39.5202
IC50 (MKN45 cells [1]; MKN45, NAC (+) 0.5 mM): > 100 µM
IC50 (MKN45 cells [1]; MKN45, NAC (-)): 56.8 ± 1.53 µM
IC25 concentration (AGS cells [2]; AGS): 15 µM
Cell Viability without NAC (AGS cells [2]; dose 10 µM): 105.035
Cell Viability without NAC (AGS cells [2]; dose 50 µM): 68.1853
Cell Viability without NAC (AGS cells [2]; dose 75 µM): 30.4823
IC50 (AGS cells [2]; AGS, NAC (+) 0.5 mM): > 100 µM
IC50 (AGS cells [2]; AGS, NAC (-)): 50 µM and 51.5 µM
Cell Viability without NAC (PANC1 cells [3]; dose 10 µM): 77.9259 and 88.6605 and 70.8131
Cell Viability without NAC (PANC1 cells [3]; dose 25 µM): 47.4239 and 33.5177 and 35.073
Cell Viability without NAC (PANC1 cells [3]; dose 50 µM): 47.9877 and 31.0793 and 43.6951
IC50 (PANC1 cells [3]; PANC1, NAC (+) 0.5 mM): > 100 µM
IC50 (PANC1 cells [3]; PANC1, NAC (-)): 20 µM and 18.8 µM
MKI67 Fold change vs GAPDH (MKN45 cells [4]; MKN45, Fig. S4C): 0.2699 fold change and 0.2509 fold change and 0.2902 fold change
TNFRSF10D Fold change vs GAPDH (MKN45 cells [4]; MKN45, Fig. S4C): 0.3106 fold change and 0.2548 fold change and 0.3786 fold change
CAT (Fold change vs GAPDH) (MKN45 cells [4]; MKN45, mRNA vs Control = 1): 1.125 Fold change and 0.8671 Fold change and 1.459 Fold change
SOD1 (Fold change vs GAPDH) (MKN45 cells [4]; MKN45, mRNA vs Control = 1): 1.504 Fold change and 1.381 Fold change and 1.638 Fold change
SOD2 (Fold change vs GAPDH) (MKN45 cells [4]; MKN45, mRNA vs Control = 1): 2.631 Fold change and 2.276 Fold change and 3.26 Fold change
CDKN1A, Fold change vs GAPDH (MKN45 cells [4]; [7]): 1.257 fold change and 1.116 fold change and 1.417 fold change
IL-6, Fold change vs GAPDH (MKN45 cells [4]; [7]): 1.298 fold change and 0.9165 fold change and 1.735 fold change
MMP-1, Fold change vs GAPDH (MKN45 cells [4]; [7]): 2.795 fold change and 2.229 fold change and 3.504 fold change
Fold change MAP2K3 vs GAPDH (MKN45 cells [4]; MKN45, Fig. 4B, replicate values): 2.445 fold change and 2.003 fold change and 2.985 fold change
CDKN1A, Fold change vs GAPDH (AGS cells [5]; Fig. 3C, replicate values): 7.239 fold change and 5.782 fold change and 9.064 fold change
IL-6, Fold change vs GAPDH (AGS cells [5]; Fig. 3C, replicate values): 1.072 fold change and 0.8542 fold change and 0.2227 fold change
MMP-1, Fold change vs GAPDH (AGS cells [5]; Fig. 3C, replicate values): 528.599 fold change and 466.082 fold change and 599.501 fold change
Fold change MAP2K3 vs GAPDH (AGS cells [5]; Fig. 4B, replicate values): 14.3277 fold change and 13.4406 fold change and 15.2735 fold change
MKI67 Fold change vs GAPDH (AGS cells [5]; Fig. S4C): 0.8471 fold change and 0.6697 fold change and 1.072 fold change
TNFRSF10D Fold change vs GAPDH (AGS cells [5]; Fig. S4C): 16.1948 fold change and 12.3693 fold change and 21.2034 fold change
CAT (Fold change vs GAPDH) (AGS cells [5]; mRNA vs Control = 1): 0.4383 Fold change and 0.3857 Fold change and 0.4982 Fold change
SOD1 (Fold change vs GAPDH) (AGS cells [5]; mRNA vs Control = 1): 1.81 Fold change and 1.501 Fold change and 2.182 Fold change
SOD2 (Fold change vs GAPDH) (AGS cells [5]; mRNA vs Control = 1): 0.6611 Fold change and 0.5938 Fold change and 0.736 Fold change
MKI67 Fold change vs GAPDH (PANC1 cells [6]; PANC1, Fig. S4C): 1.187 fold change and 1.0074 fold change and 1.3984 fold change
TNFRSF10D Fold change vs GAPDH (PANC1 cells [6]; PANC1, Fig. S4C): 1.308 fold change and 1.177 fold change and 1.453 fold change
CAT (Fold change vs GAPDH) (PANC1 cells [6]; PANC1, mRNA vs Control = 1): 1.283 Fold change and 1.157 Fold change and 1.422 Fold change
SOD1 (Fold change vs GAPDH) (PANC1 cells [6]; PANC1, mRNA vs Control = 1): 1.212 Fold change and 1.267 Fold change and 1.413 Fold change
SOD2 (Fold change vs GAPDH) (PANC1 cells [6]; PANC1, mRNA vs Control = 1): 0.7792 Fold change and 0.7372 Fold change and 0.8236 Fold change
CDKN1A, Fold change vs GAPDH (PANC1 cells [6]; [8]): 0.7609 fold change and 0.6464 fold change and 0.8957 fold change
IL-6, Fold change vs GAPDH (PANC1 cells [6]; [8]): 2.029 fold change and 0.6879 fold change and 5.985 fold change
MMP-1, Fold change vs GAPDH (PANC1 cells [6]; [8]): 1.768 fold change and 1.572 fold change and 2.113 fold change
Fold change MAP2K3 vs GAPDH (PANC1 cells [6]; PANC1, Fig. 4B, replicate values): 1.382 fold change and 1.186 fold change and 1.609 fold change
